Results as given in patent US20240132518A1, “CEPHALOSPORIN ANTIBACTERIAL COMPOUND AND PREPARATION METHOD THEREFOR” (priority 2021, published 2024).
≈ marks a conversion by molar mass, not a printed value. Where two headings read alike, the source gives them in different places.

What was measured:
[1] = tested on: Carbapenem-resistant Pseudomonas aeruginosa (CRPA); test: Antibacterial MIC assay (ID-CAMHB), carbapenem-resistant Pseudomonas aeruginosa; type: cell-based
Description: (§1) 1. The test compounds were dissolved in sterile normal saline, vortexed for uniformly mixing, and diluted in a 2-fold dilution with the sterile normal saline (11 concentration points in total). The test concentration range was 32-0.031 μg/mL, and two duplicate wells were set for each concentration. Additional wells without drug dosing were set as growth controls.
(§2) 2. 4 μL of the diluent was added to 196 μL of the bacterial suspension in a 96-well plate (the bacterial count in the bacterial suspension was 2-8×10^5 colony forming units/mL).
(§3) The minimum inhibitory concentration (MIC) assay was performed with reference to the Clinical and Laboratory Standards Institute (CLSI) guidelines.

[2] = Pharmacokinetic study in cynomolgus monkeys; type: in vivo; conditions: cynomolgus monkey, plasma, 10 mg/kg single intravenous infusion, individual animals
Description: An appropriate amount of a test compound was weighed precisely and added to a container, and 0.9% sodium chloride injection and 0.2 M NaOH solution were added thereto in an ice bath until the test compound was completely dissolved, so that a sample solution at a concentration of 2 mg/mL was obtained followed by storage at 2-8° C. for later use.
• Species and strain: cynomolgus monkey • Animal grade: general grade • Animal source: Guangxi Xiongsen Primate Experimental Animal Breeding Development Co., Ltd. • Number of the using of laboratory animal: SYXK (Su) 2019-0012
6 cynomolgus monkeys (half male and half female) were selected and randomly divided into 3 groups with 1 animal/sex in each group. The cynomolgus monkeys were administered with the test sample at a dose of 10 mg/kg by the single intravenous infusion. Blood samples were collected from each group of animals at the following time points: before administration, and 5 min, 15 min, 0.5 h, 1 h, 2 h, 4 h, 6 h, and 8 h after administration. In the test, the concentration of each test compound in the plasma of the cynomolgus monkey was detected by the LC-MS/MS method, and the lower limits of quantification of the analysis methods for the plasma samples were all 1 μg/mL. The plasma concentration data were analyzed by the non-compartmental analysis (NCA) of the analysis software for pharmacokinetic data, WinNonlin, pharmacokinetic parameters were calculated, and pharmacokinetic characteristics of the test compounds in cynomolgus monkeys after administration were investigated, with the results shown in the following table.

[3] = tested on: Control strain (Escherichia coli) ATCC 25922; test: Antibacterial MIC assay (ID-CAMHB), control strain Escherichia coli; type: cell-based; conditions: ATCC25922, ID-CAMHB, control strain ATCC 25922, read-out: MIC
Description: as §1, §2, §3

[4] = tested on: Control strain (Pseudomonas aeruginosa) ATCC 27853; test: Antibacterial MIC assay (ID-CAMHB), control strain Pseudomonas aeruginosa; type: cell-based; conditions: ATCC27853
Description: as §1, §2, §3

[5] = tested on: Carbapenem-resistant Acinetobacter baumannii (CRAB); test: Antibacterial MIC assay (ID-CAMHB), carbapenem-resistant Acinetobacter baumannii; type: cell-based
Description: as §1, §2, §3

[6] = tested on: Carbapenem-resistant Enterobacteriaceae (CRE, Klebsiella pneumoniae); test: Antibacterial MIC assay (ID-CAMHB), carbapenem-resistant Enterobacteriaceae; type: cell-based
Description: as §1, §2, §3

[7] = Pharmacokinetic study in ICR mice; type: in vivo; conditions: 100 mg/kg subcutaneous injection, plasma
Description: The formulation for administration was prepared on ice. A proper amount of the test compound was precisely weighed out, and a 90% volume of normal saline was slowly added. The mixture was ultrasonically stirred in an ice-water bath until no large pieces existed. After the mixture was well mixed, a 1 M NaOH solution was added in small portions using a pipette.
• Species and strain: ICR mice • Animal grade: SPF • Animal source: Medicilon: 999M-018
Administration by subcutaneous injection: 3 mice/sex/time point; blood samples were collected at 9 time points: 0.083 h, 0.25 h, 0.5 h, 1 h, 2 h, 4 h, 6 h, 8 h and 24 h after administration. The collected blood samples were placed in EDTA-K2 anticoagulation blood collection tubes. The collected whole blood was placed on ice and centrifuged at 6800 g at 2-8° C. for 6 min to separate plasma within 1 h. After the centrifugation, the plasma was transferred to a centrifuge tube to which a plasma stabilizer had been added in advance (plasma:concentrated phosphoric acid=100:0.2; for example, 1 μL of 10% concentrated phosphoric acid was added to 50 μL of plasma). All the animals were subjected to careful clinical observation before administration and at each of the blood collection time points after administration, and the adverse reaction symptoms in the animals were recorded.

[8] = both sexes, cynomolgus, iv, 10 mg/kg
[9] = strain FDA-CDC AR-BANK#0063, AMR gene OXA-23, OXA-65, OXA-24, sul2, read-out: MIC
[10] = strain FDA-CDC AR-BANK#0453, AMR gene KPC-3, OmpK35, oqxA, oqxB, SHV-11, TEM-1B

CC(C)(O/N=C(\C(=O)N[C@@H]1C(=O)N2C(C(=O)[O-])=C(C[N+]3(CCN(CCCNC(=O)c4ccc(O)c(O)c4Cl)C(=O)c4ccc(O)c(O)c4Cl)CCCC3)CS[C@H]12)c1csc(N)n1)C(=O)O [Compound 1]
MIC ([1]; strain FDA-CDC AR-BANK#0439, AMR gene aac(6′)-Il, aadA1b, BCR1, IMP-18, OXA-50): 0.125 µg/mL (≈ 0.128 µM) | MIC ([1]; strain FDA-CDC AR-BANK#0441, AMR gene KPC-2, read-out: MIC): 2 µg/mL (≈ 2.04 µM) | MIC ([1]; strain FDA-CDC AR-BANK#0444, AMR gene aac(6′)-Il, dfrB5, OXA-4, tet(G), VIM-2, read-out: MIC): 2 µg/mL (≈ 2.04 µM) | MIC ([1]; strain FDA-CDC AR-BANK#0457, AMR gene aadA6, VIM-2): 0.125 µg/mL (≈ 0.128 µM) | AUC(0-inf) [2, 8]: 32900 ng·h/mL | AUC(0-t) [2, 8]: 29300 ng·h/mL | clearance [2, 8]: 5.06 mL/min/kg | half-life [2, 8]: 37.2 min | Cmax ([2]; both sexes, cynomolgus, iv, 10 mg/kg, read-out: Cmax): 35500 ng/mL | MRT ([2]; both sexes, cynomolgus, iv, 10 mg/kg, read-out: MRT): 38.4 min | Vd ([2]; both sexes, cynomolgus, iv, 10 mg/kg, read-out: Vd): 0.27 L/kg | Tmax ([2]; both sexes): 4.8 min | AUC last ([2]; 10 mg/kg): 23440 ng·h/mL | AUCinf ([2]; 10 mg/kg): 25640 ng·h/mL | CL ([2]; 10 mg/kg): 6.5002 mL/min/kg | Cmax ([2]; 10 mg/kg): 30640 ng/mL | MRT ([2]; 10 mg/kg): 37.2 min | Vd ([2]; 10 mg/kg): 0.31334 L/kg | t1/2 ([2]; 10 mg/kg): 33.6 min | MIC [3]: 0.0625 µg/mL (≈ 0.0638 µM) | MIC [4]: 0.125 µg/mL (≈ 0.128 µM) | MIC ([5]; strain FDA-CDC AR-BANK#0036, AMR gene strB, OXA-65, OXA-24, strA, sul2, read-out: MIC): 0.25 µg/mL (≈ 0.255 µM) | MIC ([5]; strain FDA-CDC AR-BANK#0052, AMR gene OXA-58, OXA-100, sul2): 0.125 µg/mL (≈ 0.128 µM) | MIC [5, 9]: 32 µg/mL (≈ 32.7 µM) | MIC ([5]; strain FDA-CDC AR-BANK#0070, AMR gene OXA-58, OXA-100, sul2): 0.125 µg/mL (≈ 0.128 µM) | MIC ([5]; strain FDA-CDC AR-BANK#0101, AMR gene strB, OXA-65, OXA-24, strA, sul2, read-out: MIC): 1 µg/mL (≈ 1.02 µM) | MIC ([6]; strain FDA-CDC AR-BANK#0361, AMR gene TEM-1, SHV-12, KPC-2): 0.5 µg/mL (≈ 0.51 µM) | MIC ([6]; strain FDA-CDC AR-BANK#0362, AMR gene TEM-1, SHV-11, KPC-2): 0.25 µg/mL (≈ 0.255 µM) | MIC ([6]; strain FDA-CDC AR-BANK#0363, AMR gene TEM-1, SHV-12, KPC-2): 0.125 µg/mL (≈ 0.128 µM) | MIC ([6]; strain FDA-CDC AR-BANK#0438, AMR gene aph(3′)-Ia, dfrA12, KPC-3, OmpK35, oqxA, oqxB, SHV-11): 0.5 µg/mL (≈ 0.51 µM) | MIC [6, 10]: 1 µg/mL (≈ 1.02 µM)

CC(C)(O/N=C(\C(=O)N[C@@H]1C(=O)N2C(C(=O)[O-])=C(C[N+]3(CCNC(=O)c4ccc(O)c(O)c4Cl)CCCC3)CS[C@H]12)c1csc(N)n1)C(=O)O [Cefiderocol, reference compound]
Vd ([2]; 10 mg/kg): 0.37963 L/kg | AUMC0-inf [7]: 150.7 h · h · ug · mL^−1 | AUMC0-t [7]: 150.3 h · h · ug · mL^−1 | Kel [7]: 1.45 h⁻¹ | MRTPO [7]: 34.6 min | AUC(0-inf) ([7]; both sexes, mouse, sc): 261000 ng·h/mL | AUC(0-t) ([7]; both sexes, mouse, sc): 261000 ng·h/mL | Cmax ([7]; both sexes, mouse, sc): 363000 ng/mL | Tmax ([7]; both sexes, mouse, sc): 15 min | half-life ([7]; both sexes, mouse, sc): 28.6 min | MIC [5, 9]: 4 µg/mL (≈ 5.32 µM) | MIC [6, 10]: 1 µg/mL (≈ 1.33 µM)
